Source: PubChem BioAssay (NCI)
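Protocol summary: plate cells (96-well), add compound at 5 concentrations, incubate 48 h, interpolate endpoints linearly. Here, GI50 denotes the concentration required for 50% inhibition of growth. TGI: total growth inhibition.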

Experiments:
Test in all cases: NCI anticancer screen, dose series, 48 h
U251 CNS = tested on: U251 CNS
OVCAR-4 ovarian = tested on: OVCAR-4 ovarian
UACC-62 melanoma = tested on: UACC-62 melanoma
OVCAR-3 ovarian = tested on: OVCAR-3 ovarian
MDA-MB-231 breast = tested on: MDA-MB-231 breast
SF-295 CNS = tested on: SF-295 CNS
LOX IMVI melanoma = tested on: LOX IMVI melanoma
MDA-MB-435 = tested on: MDA-MB-435
HOP-62 NSCLC = tested on: HOP-62 NSCLC
SK-OV-3 ovarian = tested on: SK-OV-3 ovarian

Row | Structure (SMILES) | GI50 (U251 CNS) [µM] | TGI (U251 CNS) [µM] | GI50 (OVCAR-4 ovarian) [µM] | TGI (OVCAR-4 ovarian) [µM] | GI50 (UACC-62 melanoma) [µM] | TGI (UACC-62 melanoma) [µM] | GI50 (OVCAR-3 ovarian) [µM] | TGI (OVCAR-3 ovarian) [µM] | GI50 (MDA-MB-231 breast) [µM] | TGI (MDA-MB-231 breast) [µM] | GI50 (SF-295 CNS) [µM] | TGI (SF-295 CNS) [µM] | GI50 (LOX IMVI melanoma) [µM] | TGI (LOX IMVI melanoma) [µM] | GI50 (MDA-MB-435) [µM] | TGI (MDA-MB-435) [µM] | GI50 (HOP-62 NSCLC) [µM] | TGI (HOP-62 NSCLC) [µM] | GI50 (SK-OV-3 ovarian) [µM] | TGI (SK-OV-3 ovarian) [µM]
1 | O=P(CCCCP(=O)(c1ccccc1)c1ccccc1)(c1ccccc1)c1ccccc1.[Cl][Sn]([Cl])([c]1ccccc1)[c]1ccccc1 | 2 | 4.77 | 1.54 | 3 | 1.59 | 3.3 | 1.61 | 3.99 | 0.626 | 2.11 | 6.36 | 18.3 | 1.29 | 5.45 | 1.77 | 3.91 | 0.462 | 2.67 | 6.25 | 19
2 | COc1cc(NC(=O)CSc2nc3ccc(C)cc3c(=O)n2Cc2ccccc2)cc(OC)c1OC | 3.93 | 24 | 3.41 | 33.3 | 2.93 | > 100 | 9.36 | > 100 | 3.42 | > 100 | 7.01 | > 100 | 55 | > 100 | 9.55 | > 100 | 2.3 | 5.8 | 3.06 | 8.58
3 | C=C(C)[C@@H]1CC[C@]2(C)[C@H](CC=C3[C@@H]4[C@@H](C)[C@H](C)CC[C@]4(C(N)=O)CC[C@]32C)[C@@]1(C)CCC#N | 4.32 | 18.3 | 3.74 | > 100 | 5.69 | 29 | 3.45 | 10.7 | 8.75 | 42.8 | 4.44 | > 100 | 7.06 | 20.1 | 4.36 | > 100 | 7.71 | > 100 | 7.31 | > 100
4 | CCC[CH2][Sn]([CH2]CCC)([CH2]CCC)[O]C(=O)c1ccc(Cl)cc1Cl | 0.17 | 0.33 | 0.0958 | 0.226 | 0.161 | 0.368 | 0.13 | 0.259 | 0.129 | 0.326 | 0.197 | 0.375 | 0.148 | 0.303 | 0.16 | 0.335 | 0.164 | 0.319 | 0.142 | 0.279
5 | CC(=O)OCC(=O)[C@@]12OC(C)(C)O[C@@H]1C[C@H]1[C@@H]3CC=C4C[C@@H](O)CC[C@]4(C)[C@H]3CC[C@@]12C |  | > 100 |  | > 100 |  | > 100 |  | > 100 |  | > 100 |  | > 100 |  | > 100 |  | > 100 |  | > 100 |  | > 100
6 | CC(C)COCC(CN(Cc1ccccc1)c1ccccc1)N1CCCC1 (stereo not given) | 3.24 | 13.3 | 2.04 | 11 | 2.87 | 12.5 | 3.15 | 12.1 | 1.84 | 5.22 | 2.02 | 6.5 | 2.48 | 8.2 | 3.46 | 13.8 | 2.82 | 14.4 | 3.17 | 13.6
7 | N#CC1=C(N)Oc2c(sc3c(Br)cccc23)C1c1ccc(Br)cc1 (stereo not given) | 0.544 | 2.05 | 1.46 | 15.5 | 0.636 | 16.5 | 0.307 | 1.15 | 1.21 | 3.7 | 0.38 | 2.85 | 0.747 | 3.95 | 0.109 | 0.46 | 0.41 | 2.62 | 0.316 | 3.38
8 | CC(NCCC(=O)N(CCC(=O)N(CCC(=O)N(CCC(=O)N(CCC(=O)N(CCC(=O)N(CCC(=O)N(CCC(=O)N(CCC(=O)N(CCC(=O)O)[C@H](C)c1ccccc1)[C@H](C)c1ccccc1)[C@H](C)c1ccccc1)[C@H](C)c1ccccc1)[C@H](C)c1ccccc1)[C@H](C)c1ccccc1)[C@H](C)c1ccccc1)[C@H](C)c1ccccc1)[C@H](C)c1ccccc1)c1ccccc1 (stereo not given in full) | 2.82 | 11.1 | 2.48 | > 68.7 | 1.32 | 2.96 | 2.04 | 19.1 | 1.44 | 4.39 | 1.92 | 5.55 | 1.17 | 2.37 | 1.71 | > 16.1 | 1.99 | 6.93 | 10.6 | > 53
9 | FC(F)(F)c1ccc(C#Cc2ccccc2C#Cc2ccccc2)cc1 | 27.6 | 81.2 | 57.5 | > 100 | 92.9 | > 100 | 29.5 | 91.9 | 26.5 | 62.7 | 30.3 | > 100 | 26.2 | 55.3 | 35.4 | > 100 | 52.5 | > 100 | 32.6 | > 100
10 | O=C1C=CC[C@H](/C=C/c2ccccc2)O1 | 1.88 | 13.1 | 1.39 | 10.7 | 4.84 | 19 | 1.94 | 7.31 | 5.42 | 32.4 | 2.54 | > 40.9 | 1.7 | 7.93 | 1.81 | 14.8 | 7.44 | > 61.6 | 5.54 | 99.4
11 | O=C(c1ccccc1)C(Br)C(Br)c1cccc([N+](=O)[O-])c1 (stereo not given) | 1.56 | 3.02 | 1.49 | 2.81 | 1.79 | 3.56 | 1.61 | 2.96 | 1.96 | 3.79 | 10.8 | 24 | 1.36 | 2.77 | 2.52 | 7.19 | 4.26 | 14.4 | 11 | 22.9
